What was measured:
[1] = Surface tension (DuNuoy Tensiometer); type: physicochemical; settings: room temperature (23° C.)
[2] = Density (2.0 mL volumetric tube, weighing by difference); type: physicochemical; settings: 23° C.
Method: (§1) The densities of the ionic liquids or, more correctly, […] (used synonymously except as indicated otherwise explicitly or by context) was determined at 23° C. by placing 2.0 mL of the ionic liquid in a 2.0 mL volumetric tube and weighing by difference. The melting points of the ionic liquids were determined using a Perkin Elmer Pyris 1 Differential Scanning calorimeter (Boston, Mass.). Typical methods involved using a 10° C./min temperature ramp to determine and identify the first and second order thermal transitions. […] For solid compounds, the melting points were verified using a capillary melting point apparatus. Refractive index measurements were conducted at 23° C. using a Bausch & Lomb Abbe-3L refractometer.

[3] = Refractive index (Abbe-3L refractometer); type: physicochemical; settings: 23° C.
Method: as §1

[4] = Solvation interaction parameters by inverse gas-liquid chromatography (Abraham solvation model); type: physicochemical
Method: The preparation of the capillary columns for inverse gas-liquid chromatographic analysis was performed using a previously described procedure.^31 All capillary columns had efficiencies between 2100 to 2500 plates/meter. Characterization of the capillary columns and probe molecule descriptions are listed in supplemental information. Multiple linear regression analysis (MLRA) and statistical calculations were performed using the program Analyse-it (Microsoft, USA).
We have previously reported that the Abraham solvation model, a linear free energy approach that utilizes inverse gas-liquid chromatography to describe the solvation properties of a liquid, can be used to characterize room temperature ionic liquids.^31 Described by equation 1, the model provides the so-called “interaction parameters” (r, s, a, b, l) by using multiple linear regression analysis to fit the retention factor (k, determined chromatographically) to the solute descriptors (R2, π2^H, α2^H, β2^H, log L^16) for a wide variety of probe solute molecules. […] The solvation properties of four dicationic ionic liquids (see Table 4) were evaluated and the interaction parameters compared to those obtained for their traditional monocationic analogues 1-butyl-3-methylimidazolium and 1-butyl-1-methylpyrrolidinium ionic liquids.
Previously we characterized a large number of room temperature ionic liquids in terms of multiple solvation interactions using the solvation parameter model, shown in equation 3.^44 log k=c+rR2+sπ2^H+aα2^H+bβ2^H+l log L^16 [3] This approach utilizes inverse gas-liquid chromatography and allows the use of a large number of probe molecules to deconvolute solute retention in terms of the type and magnitude of individual solvation interactions. The solute descriptors (R2, π2^H, α2^H, β2^H, log L^16) from Equation 3 are obtained from the literature for many probe molecules containing a variety of functional groups.^45 The retention factor is determined chromatographically. The solute descriptors and retention factors are subjected to multiple linear regression analysis to obtain the interaction parameter coefficients (r, s, a, b, l), which ultimately characterize the stationary phase: r is the ability of the diionic liquid containing-stationary phase to interact with π and n electrons of the solute, s is a measure of the dipolarity/polarizability of the diionic liquid containing-stationary phase, a defines the diionic liquid containing-stationary phase hydrogen bond basicity, b is a measure of the hydrogen bond acidity, and/refers to the ability of the diionic liquid containing-stationary phase to separate adjacent members of a homologous series.^46
(§2) Test solutes used to determine interaction parameters and solvation thermodynamics were dissolved in dichloromethane. A Hewlett-Packard model 5890 gas chromatograph and a Hewlett-Packard 6890 series integrator were used for all separations. Split injection and flame ionization detection were utilized with injection and detection temperatures of 250° C. Helium was used as the carrier gas with a column inlet pressure of 3.1 psi and flow rate of 1.0 mL/min. Methane was used to determine the dead volume of the column. Multiple linear regression analysis and statistical calculations were performed using the program Analyze-it (Microsoft).

[5] = Solvation thermodynamics of probe molecules (van't Hoff plots, GC); type: physicochemical
Source text: Solvation thermodynamics can be determined chromatographically by recognizing that the Gibbs free energy change, ΔG°, of a solute between the mobile phase and the stationary phase can be described by equation 1:
[formula] where k is the solute retention factor and Φ is the column phase ratio. An expression shown in equation 2 can then be derived and illustrates the dependence of enthalpy, ΔH°, and entropy, ΔS°, on the change of the retention factor with temperature:
[formula] A van't Hoff plot of ln k versus 1/T provides the entropy (intercept) and enthalpy (slope) and describes a solute's transfer from the gas phase to the ionic liquid stationary phase. In this work, the solvation thermodynamics were determined for seven different probe molecules, listed in Table D, on two cross-linked ionic liquid phases and one ionic liquid stationary phase. […] For each probe molecule on each stationary phase, three separate van't Hoff plots were constructed so that changes in the probe molecule retention factor could be used to provide an error for each thermodynamic parameter. The probe molecule retention factors were determined at six different temperatures to obtain the highest possible correlation coefficient (>0.989).
as §2

[6] = probe 2-Chloroaniline, 40-100° C.
[7] = probe Ethyl Phenyl Ether, 35-75° C.

Cn1cc[n+](CCCCCCCCCCCC[n+]2ccn(C)c2)c1.O=S(=O)([N-]S(=O)(=O)C(F)(F)F)C(F)(F)F.O=S(=O)([N-]S(=O)(=O)C(F)(F)F)C(F)(F)F [C12(mim)2-NTf2, 1,12-di(3-methylimidazolium)dodecane di-bis[(trifluoromethyl)sulfonyl]imidate]
Surface Tension [1]: 42.3 dynes/cm | Density [2]: 1.40 g/mL | Refractive Index [3]: 1.443 | Miscibility with Heptane: Immiscible | Miscibility with Water: Immiscible

Cn1cc[n+](CCCCCCCCCCCC[n+]2ccn(C)c2)c1.F[P-](F)(F)(F)(F)F.F[P-](F)(F)(F)(F)F [C12(mim)2-PF6, 1,12-di(3-methylimidazolium)dodecane di-hexafluorophosphate]
Surface Tension [1]: 53.4 dynes/cm | Density [2]: 1.36 g/mL | Refractive Index [3]: 1.436 | Miscibility with Heptane: Immiscible | Miscibility with Water: Immiscible

CCCCn1cc[n+](CCCCCCCCC[n+]2ccn(CCCC)c2)c1.O=S(=O)([N-]S(=O)(=O)C(F)(F)F)C(F)(F)F.O=S(=O)([N-]S(=O)(=O)C(F)(F)F)C(F)(F)F [C9(bim)2-NTf2, 1,9-di(3-butylimidazolium)nonane di-bis[(trifluoromethyl)sulfonyl]imidate]
Surface Tension [1]: 38.0 dynes/cm | Density [2]: 1.35 g/mL | Refractive Index [3]: 1.446 | Miscibility with Heptane: Immiscible | Miscibility with Water: Immiscible

CCCCCCCCC[n+]1ccn(C)c1.O=S(=O)([N-]S(=O)(=O)C(F)(F)F)C(F)(F)F [nmim-NTf2]
Density [2]: 1.30 g/mL | Refractive Index [3]: 1.434 | a (hydrogen bond basicity) ([4]; 40° C.): 1.91 | b (hydrogen bond acidity) ([4]; 40° C.): 0.36 | c (interaction parameter table, constant) ([4]; 40° C.): −2.98 | l (dispersion forces) ([4]; 40° C.): 0.75 | r (interaction via nonbonding and π-electrons) ([4]; 40° C.): 0 | s (dipolarity/polarizability) ([4]; 40° C.): 1.62 | a (hydrogen bond basicity) ([4]; 70° C.): 1.57 | b (hydrogen bond acidity) ([4]; 70° C.): 0.18 | c (interaction parameter table, constant) ([4]; 70° C.): −3.05 | l (dispersion forces) ([4]; 70° C.): 0.63 | r (interaction via nonbonding and π-electrons) ([4]; 70° C.): 0 | s (dipolarity/polarizability) ([4]; 70° C.): 1.54 | a (hydrogen bond basicity) ([4]; 100° C.): 1.43 | b (hydrogen bond acidity) ([4]; 100° C.): 0.12 | c (interaction parameter table, constant) ([4]; 100° C.): −3.47 | l (dispersion forces) ([4]; 100° C.): 0.60 | r (interaction via nonbonding and π-electrons) ([4]; 100° C.): 0 | s (dipolarity/polarizability) ([4]; 100° C.): 1.52 | ΔHAV ([5]; probe 1-Octanol, 35-75° C.): -59277 J/mol | ΔSAV ([5]; probe 1-Octanol, 35-75° C.): −151 J/mol*K | ΔG ([5]; probe 1-Octanol, 50° C.): -10481 J/mol | ΔHAV [5, 6]: -57652 J/mol | ΔSAV [5, 6]: −134 J/mol*K | ΔG ([5]; probe 2-Chloroaniline, 70° C.): -11670 J/mol | ΔHAV ([5]; probe Decane, 35-75° C.): -45389 J/mol | ΔSAV ([5]; probe Decane, 35-75° C.): −127 J/mol*K | ΔG ([5]; probe Decane, 50° C.): -4349 J/mol | ΔHAV [5, 7]: -46521 J/mol | ΔSAV [5, 7]: −121 J/mol*K | ΔG ([5]; probe Ethyl Phenyl Ether, 50° C.): -7420 J/mol | ΔHAV ([5]; probe Fluorophenol, 40-100° C.): -48104 J/mol | ΔSAV ([5]; probe Fluorophenol, 40-100° C.): −121 J/mol*K | ΔG ([5]; probe Fluorophenol, 70° C.): -6583 J/mol | ΔHAV ([5]; probe Naphthalene, 40-100° C.): -53789 J/mol | ΔSAV ([5]; probe Naphthalene, 40-100° C.): −127 J/mol*K | ΔG ([5]; probe Naphthalene, 70° C.): -10209 J/mol | ΔHAV ([5]; probe Nitropropane, 27-50° C.): -39010 J/mol | ΔSAV ([5]; probe Nitropropane, 27-50° C.): −109 J/mol*K | ΔG ([5]; probe Nitropropane, 35° C.): -5422 J/mol

Source: patent publication US8956445B2, “High stability diionic liquid salts” (Sigma-Aldrich Co., priority 2004, dated 2015)
